According to the supplement of paper PMC7287046:

What was measured:
Conditions in all cases: exposure time: 72 h
AM-38 [1] = assay: HSA synergy score (Combenefit); higher = more synergy
Procedure: (§1)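 The same 6x6 dose matrices of drug pairs on glioma cell lines (72 h, CellTiter-Glo viability normalised to DMSO, triplicate) were scored with Combenefit. The Loewe, Bliss and HSA synergy scores are given; paper thresholds are Loewe 7.8 and Bliss 2.5.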

KNS-42 [2] = assay: as above
Procedure: as §1

SF268 [3] = assay: as above
Procedure: as §1

SF539 [4] = assay: as above
Procedure: as §1

SNB75 [5] = assay: as above
Procedure: as §1

T98G [6] = assay: as above
Procedure: as §1

U118 [7] = assay: as above
Procedure: as §1

U251 [8] = assay: as above
Procedure: as §1

U87 [9] = assay: as above
Procedure: as §1

AM38 = assay: Chou-Talalay combination index (dimensionless); higher = less synergy (more antagonism)
Procedure: (§2)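 Glioma cell lines were treated for 72 h with a 6x6 matrix of two drugs, each in twofold dilutions with the top dose at the single-drug IC50. Viability was read by CellTiter-Glo and normalised to DMSO controls, in triplicate. The Chou-Talalay combination index was computed by the median effect principle; CI < 0.8 means synergy.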

KNS42 = assay: as above
Procedure: as §2

SF268 [10] = assay: as above
Procedure: as §2

SF539 [11] = assay: as above
Procedure: as §2

SNB75 [12] = assay: as above
Procedure: as §2

T98 = assay: as above
Procedure: as §2

U118 [13] = assay: as above
Procedure: as §2

U251 [14] = assay: as above
Procedure: as §2

U87 [15] = assay: as above
Procedure: as §2

AM-38 [16] = assay: Bliss synergy score (Combenefit); higher = more synergy; extreme values may be limits of the assay
Procedure: as §1

KNS-42 [17] = assay: as above
Procedure: as §1

SF268 [18] = assay: as above
Procedure: as §1

SF539 [19] = assay: as above
Procedure: as §1

SNB75 [20] = assay: as above
Procedure: as §1

T98G [21] = assay: as above
Procedure: as §1

U118 [22] = assay: as above
Procedure: as §1

U251 [23] = assay: as above
Procedure: as §1

U87 [24] = assay: as above
Procedure: as §1

AM-38 [25] = assay: Loewe synergy score (Combenefit); higher = more synergy; extreme values may be limits of the assay
Procedure: as §1

KNS-42 [26] = assay: as above
Procedure: as §1

SF268 [27] = assay: as above
Procedure: as §1

SF539 [28] = assay: as above
Procedure: as §1

SNB75 [29] = assay: as above
Procedure: as §1

T98G [30] = assay: as above
Procedure: as §1

U118 [31] = assay: as above
Procedure: as §1

U251 [32] = assay: as above
Procedure: as §1

U87 [33] = assay: as above
Procedure: as §1

Row | Structure (SMILES) | HSA synergy score (AM-38 [1]) | HSA synergy score (KNS-42 [2]) | HSA synergy score (SF268 [3]) | HSA synergy score (SF539 [4]) | HSA synergy score (SNB75 [5]) | HSA synergy score (T98G [6]) | HSA synergy score (U118 [7]) | HSA synergy score (U251 [8]) | HSA synergy score (U87 [9]) | Chou-Talalay combination index (AM38) | Chou-Talalay combination index (KNS42) | Chou-Talalay combination index (SF268 [10]) | Chou-Talalay combination index (SF539 [11]) | Chou-Talalay combination index (SNB75 [12]) | Chou-Talalay combination index (T98) | Chou-Talalay combination index (U118 [13]) | Chou-Talalay combination index (U251 [14]) | Chou-Talalay combination index (U87 [15]) | Bliss synergy score (AM-38 [16]) | Bliss synergy score (KNS-42 [17]) | Bliss synergy score (SF268 [18]) | Bliss synergy score (SF539 [19]) | Bliss synergy score (SNB75 [20]) | Bliss synergy score (T98G [21]) | Bliss synergy score (U118 [22]) | Bliss synergy score (U251 [23]) | Bliss synergy score (U87 [24]) | Loewe synergy score (AM-38 [25]) | Loewe synergy score (KNS-42 [26]) | Loewe synergy score (SF268 [27]) | Loewe synergy score (SF539 [28]) | Loewe synergy score (SNB75 [29]) | Loewe synergy score (T98G [30]) | Loewe synergy score (U118 [31]) | Loewe synergy score (U251 [32]) | Loewe synergy score (U87 [33])
1 | C#Cc1cccc(Nc2ncnc3cc(OCCOC)c(OCCOC)cc23)c1 [Erlotinib] + O=c1[nH]c2ccccc2n1C1CCN(Cc2ccc(-c3[nH]c4cc5ncnc5cc4nc3-c3ccccc3)cc2)CC1 [Akt inhibitor VIII] | 0 | 14 | 10.1 | 9.63 | 13.2 | 6.87 | 17 | 13.6 | 0.0775 | 0.914 | 0.754 | 0.97 | 0.906 | 0.763 | 0.775 | 0.807 | 0.526 | 1.26 | 0 | 7.67 | 1.25 | 0.771 | 10.2 | 0.127 | 4.68 | 12.6 | 0 | 0 | 12.3 | 3.87 | 7.22 | 4.44 | 1.87 | 7.49 | 10.4 | 0
2 | CO[C@H]1C[C@@H]2CC[C@@H](C)[C@@](O)(O2)C(=O)C(=O)N2CCCC[C@H]2C(=O)O[C@H]([C@H](C)C[C@@H]2CC[C@@H](O)[C@H](OC)C2)CC(=O)[C@H](C)/C=C(\C)[C@@H](O)[C@@H](OC)C(=O)[C@H](C)C[C@H](C)/C=C/C=C/C=C/1C [Rapamycin] + C[C@@H](Oc1cc(-c2cnn(C3CCNCC3)c2)cnc1N)c1c(Cl)ccc(F)c1Cl [Crizotinib] | 0.00484 | 19.5 | 8.72 | 3.78 | 10.4 | 0 | 5.07 | 26.2 | 19.4 | 1.07 | 0.807 | 0.928 | 0.968 | 0.943 | 1.1 | 1 | 0.715 | 0.683 | 0 | 3.73 | 0.0254 | 0 | 0.128 | 0 | 0 | 5.62 | 11.2 | 0 | 18.6 | 8.2 | 3.24 | 9.67 | 0 | 5.03 | 26 | 16.4
3 | CCCCCCCCCCCC1=C(O)C(=O)C=C(O)C1=O [Embelin] + O=c1[nH]c2ccccc2n1C1CCN(Cc2ccc(-c3[nH]c4cc5ncnc5cc4nc3-c3ccccc3)cc2)CC1 [Akt inhibitor VIII] | 2.45 | 21.8 | 6.9 | 2.02 | 5.56 | 5.06 | 2.72 | 0.813 | 3.6 | 0.773 | 0.589 | 0.946 | 1.03 | 0.773 | 0.226 | 0.946 | 0.839 | 0.641 | 1.12 | 10.1 | 2.64 | 0.0542 | 1.95 | 1.2 | 1.02 | 0.813 | 3.16 | 0.351 | 21.4 | 1.14 | 0.853 | 1.11 | 3.51 | 1.18 | 0.813 | 1.72
4 | CCCCCCCCCCCC1=C(O)C(=O)C=C(O)C1=O [Embelin] + N#CC(c1ccnc(NCCc2cccnc2)n1)c1nc2ccccc2s1 [AS601245] | 1.14 | 12.6 | 5.6 | 1.24 | 2.04 | 11.9 | 4.61 | 1.11 | 10.3 | 0.867 | 0.78 | 0.923 | 0.84 | 0.365 | 0.365 | 0.639 | 0.88 | 0.0258 | 0.346 | 7.8 | 1.91 | 0.103 | 0.833 | 6.12 | 2.98 | 1.11 | 9.51 | 0 | 2.73 | 0.00767 | 0.787 | 0.557 | 6.59 | 4.39 | 1.11 | 0.927
5 | Nc1ccn([C@@H]2O[C@H](CO)[C@@H](O)C2(F)F)c(=O)n1 [Gemcitabine] + C[C@@H](Oc1cc(-c2cnn(C3CCNCC3)c2)cnc1N)c1c(Cl)ccc(F)c1Cl [Crizotinib] | 3.33 | 1.25 | 1.93 | 2.44 | 7.67 | 0 | 0.488 | 7.75 | 0.0446 | 0.719 | 0.783 | 0.954 | 0.801 | 0.899 | 1.03 | 0.987 | 0.752 | 1.25 | 0.116 | 0 | 0.175 | 0.0351 | 4.81 | 0 | 0.063 | 0.679 | 0 | 3.12 | 0.0765 | 0.179 | 0 | 5.91 | 0 | 0.443 | 2.98 | 0.0421
6 | CC(=O)O[C@@]12CO[C@@H]1C[C@H](O)[C@@]1(C)C(=O)[C@H](O)C3=C(C)[C@@H](OC(=O)[C@H](O)[C@@H](NC(=O)OC(C)(C)C)c4ccccc4)C[C@@](O)([C@@H](OC(=O)c4ccccc4)[C@H]21)C3(C)C [Docetaxel] + C#Cc1cccc(Nc2ncnc3cc(OCCOC)c(OCCOC)cc23)c1 [Erlotinib] | 0 | 7.84 | 9.27 | 2.49 | 5.52 | 9.15 | 6.82 | 5.05 | 3.14 | 0.962 | 0.834 | 0.934 | 0.998 | 0.781 | 0.713 | 0.956 | 0.678 | 1.1 | 0 | 2.96 | 0.0561 | 0 | 4.1 | 0.0594 | 0.59 | 2.48 | 0 | 0 | 7.84 | 5.33 | 1.4 | 5.52 | 8.54 | 0.504 | 5.05 | 0.182
7 | CCC(=O)N1CCN(c2ccc(-n3c(=O)ccc4cnc5ccc(-c6cnc7ccccc7c6)cc5c43)cc2C(F)(F)F)CC1 [Torin1] + O=c1[nH]c2ccccc2n1C1CCN(Cc2ccc(-c3[nH]c4cc5ncnc5cc4nc3-c3ccccc3)cc2)CC1 [Akt inhibitor VIII] | 14.7 | 16.1 | 13.5 | 10.4 | 3.56 | 9.39 | 17.9 | 1.85 | 6.03 | 0.83 | 0.852 | 0.85 | 0.778 | 0.591 | 0.645 | 0.769 | 0.878 | 0.797 | 0.504 | 6.55 | 0.944 | 3.46 | 0.0946 | 4.49 | 5.39 | 1.02 | 5.43 | 7.92 | 11.3 | 5.18 | 9.28 | 0.719 | 2.94 | 9.44 | 0.27 | 0.347
8 | C[C@@H](Oc1cc(-c2cnn(C3CCNCC3)c2)cnc1N)c1c(Cl)ccc(F)c1Cl [Crizotinib] + Cc1cc([C@@H](C)Nc2ccccc2C(=O)O)c2nc(N3CCOCC3)cc(=O)n2c1 [AZD6482] | 11.9 | 4.57 | 6.69 | 10.7 | 9.49 | 4.32 | 3.87 | 16.2 | 5.48 | 0.52 | 0.887 | 0.786 | 0.842 | 0.802 | 0.543 | 0.844 | 0.567 | 0.652 | 4.62 | 3.3 | 0.801 | 0.821 | 0.559 | 4.32 | 0.491 | 12.8 | 5.48 | 3.58 | 3.35 | 3.44 | 2.57 | 3.14 | 4.32 | 3.69 | 16.2 | 5.48
9 | Cc1cc([C@@H](C)Nc2ccccc2C(=O)O)c2nc(N3CCOCC3)cc(=O)n2c1 [AZD6482] + CCOc1nc(NC(=O)Cc2cc(OC)ccc2OC)cc(N)c1C#N [JNK inhibitor VIII] | 17 | 0.866 | 4.35 | 7.49 | 6.97 | 11.5 | 8.89 | 0.00428 | 1 | 0.77 | 0.994 | 0.792 | 0.545 | 1 | 0.758 | 0.669 | 0.731 | 0.576 | 14.5 | 0.255 | 0.107 | 0.0312 | 6.97 | 10.8 | 2.95 | 0.00428 | 1 | 15.4 | 0.866 | 0.654 | 1.84 | 6.97 | 11.5 | 2.68 | 0.00428 | 1
